We go through nine molecules from patent US20240166681A1, “3'3' CYCLIC DINUCLEOTIDES CONTAINING ISONUCLEOTIDIC UNITS” (INSTITUTE OF ORGANIC CHEMISTRY AND BIOCHEMISTRY AS CR, V. …, priority 2021, published 2024).

In this assay the target is WT STING (Homo sapiens, UniProt Q86WV6, H232R). Kind of assay: Digitonin assay using 293T wtSTING-FL reporter cells. In kind it is cell-based. Details: host or cells: 293T (ATCC CRL-3216), stably transfected. The settings on record: 293T wtSTING-FL cells, digitonin buffer 30 min, then 5 h, ISRE firefly luciferase reporter. The source says: […] […] (SEQ ID NO:2) containing four interferon-sensitive response elements (ISRE) were synthesized by Sigma Aldrich (Czech Republic, Prague). The oligonucleotides were mixed in equal molar amounts, hybridized, and cleaved by restriction endonucleases HindIII (cat. #.R0104S, NEB, Ipswich, USA) and BglII (cat. #R0144S, NEB, Ipswich, USA). Ultimately, they were ligated into plasmid pGL4.27 (cat. #E6651, Promega, Madison, USA) linearized with the same enzymes. As result the sequence with four ISRE sites was placed upstream of the minimum promoter of firefly luciferase reporter gene.
Chain of WT STING (Q86WV6 whole entry H232R): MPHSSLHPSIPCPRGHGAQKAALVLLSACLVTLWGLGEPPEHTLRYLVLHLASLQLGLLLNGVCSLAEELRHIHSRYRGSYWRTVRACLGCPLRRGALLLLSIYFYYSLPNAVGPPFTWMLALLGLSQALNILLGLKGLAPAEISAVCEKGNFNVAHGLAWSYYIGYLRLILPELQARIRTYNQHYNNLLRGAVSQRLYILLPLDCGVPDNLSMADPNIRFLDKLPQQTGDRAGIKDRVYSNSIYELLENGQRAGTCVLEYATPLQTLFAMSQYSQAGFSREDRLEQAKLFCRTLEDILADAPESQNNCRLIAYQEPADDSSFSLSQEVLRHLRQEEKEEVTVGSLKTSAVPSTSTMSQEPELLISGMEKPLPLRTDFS
293T cells (cat. #CRL-3216, ATCC, Manassas, USA) were seeded a day before transfection at density 125,000 cells per cm^2 onto poly-D-lysine (cat. #P6407, Sigma Aldrich, Czech Republic) coated six well plates in antibiotic free DMEM with high glucose (cat. #D5796, Sigma Aldrich, Czech Republic) supplemented with 10% heat inactivated FBS (cat. #S1520, Biowest, Riverside, USA). On the day of transfection, 2.5 μg of the plasmid pUNO1-hSTING-WT (cat. #punol-hstingwt, InvivoGen, San Diego, USA,) encoding human wild type STING (WT STING) was diluted in 125 μL OptiMEM medium (cat. #31985062, ThermoFisher, Waltham, USA) and mixed with 125 μL of the same medium containing 12.5 μL of Lipofectamine 2000 (cat. #11668019, ThermoFisher, Waltham, USA). After 5 minutes incubation at room temperature (RT), 250 μL of the mixture was added dropwise to the cells in one well. Cells were incubated 36 hours at 37° C. with 5% CO2, and then detached with 0.05% Trypsin and 0.22 g/L EDTA (both cat. #L0941, Biowest, Riverside, USA).
Transfected cells were seeded onto poly-D-lysine coated six well plates at density 50,000 cells per 1 cm^2 in DMEM medium with high glucose containing 10% heat inactivated FBS, 30 μg/mL blasticidin (cat. #ant-b1-05, InvivoGen, San Diego, USA), 0.06 mg/ml Penicillin G and 0.1 mg/ml Streptomycin Sulfate (both cat. #. L0018, Biowest, Riverside, USA). The medium was replenished every 3-4 days until visible colonies of cells resistant to blasticidin were formed.
Blasticidin resistant cells stably expressing WT STING were further transfected with […] plasmid following the same procedure as described above. The transfected cells were selected for the resistance to 300 μg/mL hygromycin (cat. #. 10687010, ThermoFisher, Waltham, USA) in DMEM with high glucose containing 10% heat inactivated FBS, 30μg/mL blasticidin, 0.06 mg/ml Penicillin G and 0.1 mg/ml Streptomycin Sulfate. Homogeneous culture of stably double transfected cells was prepared by limiting dilution of cells in 96 well plates and wells with cells were selected that originated from a single cell. These cells were expanded, and expression of WT STING was confirmed by western blot using monoclonal mouse anti STING antibodies (cat. #. MAB7169, 1:1000 dilution; […]. Genomic DNA from the transfected cells was amplified with primers pUNO1_Seq_F ([…]) (SEQ ID NO:3) and pUNO1_Seq_R ([…]) (SEQ ID NO:4) that were complementary to pUNO1 plasmid and the presence of WT STING gene in the transfected cells was confirmed by DNA sequencing.
293T wtSTING-FL cells were seeded at density of 250,000 cells per cm^2 onto 96 well poly-D-lysine coated plates in 100 μl DMEM with high glucose supplemented with 10% heat inactivated FBS. The medium was removed next day and three fold serial dilutions of compounds in Digitonin buffer containing 50 mmol·l^−1 HEPES (cat. #H3375, Sigma Aldrich, Czech Republic) pH 7.0, 100 mmol·l^−1 KCl, 3 mmol·l^−1 MgCl2, 0.1 mmol.·l^−1 DTT (cat. #D0632, Sigma Aldrich, Czech Republic), 85 mmol·l^−1 Sucrose (cat. #S7903, Sigma Aldrich, Czech Republic), 0.2% BSA (cat. #A2153, Sigma Aldrich, Czech Republic), 1 mmol·l^−1 ATP (cat. #A1852, Sigma Aldrich, Czech Republic), 0.1 mmol·l^−1 GTP (cat. #G8877, Sigma Aldrich, Czech Republic), and 10 μg/mL Digitonin A (cat. #D141, Sigma Aldrich, Czech Republic) were added to the cells. […]
For orientation: A reporter such as luciferase makes a cellular process visible.

For `Nc1nc2c(ncn2[C@@H]2CO[C@@H]3COP(=O)(O)O[C@H]4[C@H](n5cnc6c(N)ncnc65)CO[C@@H]4COP(=O)(O)O[C@@H]23)c(=O)[nH]1` [Compound 52, (1S,6R,9R,10S,15R,18R)-9-(2-amino-6-oxo-6,9-dihydro-1H-purin-9-yl)-18-(6-amino-9H-purin-9-yl)-3,12-dihydroxy-2,4,7,11,13,16-hexaoxa-3λ^5,12λ^5-diphosphatricyclo[13.3.0.0^6,10]octadecane-3,12-dione], it took 1.35 µM to reach a half-maximal effect (EC50). To `Nc1ncnc2c1ncn2[C@@H]1CO[C@@H]2COP(=O)(O)O[C@H]3C[C@H](n4cnc5c(N)ncnc54)O[C@@H]3COP(=O)(O)O[C@@H]12` [Compound 50, (1S,6R,8R,10S,15R,18R)-8,18-bis(6-amino-9H-purin-9-yl)-3,12-dihydroxy-2,4,7,11,13,16-hexaoxa-3λ^5,12λ^5-diphosphatricyclo[13.3.0.0^6,10]octadecane-3,12-dione] belongs 0.28 µM; to `Nc1ncnc2c1ncn2[C@@H]1CO[C@@H]2COP(=O)(O)O[C@H]3[C@@H](F)[C@H](n4cnc5c(N)ncnc54)O[C@@H]3COP(=O)(O)O[C@@H]12` [Compound 28, (1S,6R,8R,9R,10R,15R,18R)-8,18-bis(6-amino-9H-purin-9-yl)-9-fluoro-3,12-dihydroxy-2,4,7,11,13,16-hexaoxa-3λ^5,12λ^5-diphosphatricyclo[13.3.0.0^6,10]octadecane-3,12-dione], 0.02 µM. Regarding `Nc1nc2c(ncn2[C@@H]2CO[C@@H]3COP(=O)(O)O[C@H]4[C@@H](F)[C@H](n5cnc6c(N)ncnc65)O[C@@H]4COP(=O)(O)O[C@@H]23)c(=O)[nH]1` [Compound 51, (1S,6R,8R,9R,10R,15R,18R)-18-(2-amino-6-oxo-6,9-dihydro-1H-purin-9-yl)-8-(6-amino-9H-purin-9-yl)-9-fluoro-3,12-dihydroxy-2,4,7,11,13,16-hexaoxa-3λ^5,12λ^5-diphosphatricyclo[13.3.0.0^6,10]octadecane-3,12-dione], the EC50 – broadly, the concentration that produces a half-maximal response – stood at 0.08 µM. The figure for `Nc1nc2c(ncn2[C@@H]2O[C@@H]3COP(=O)(O)O[C@H]4[C@H](n5cnc6c(N)ncnc65)CO[C@@H]4COP(=O)(O)O[C@H]3[C@H]2F)c(=O)[nH]1` [Compound 24, (1S,6R,8R,9R,10R,15R,18R)-8-(2-amino-6-oxo-6,9-dihydro-1H-purin-9-yl)-18-(6-amino-9H-purin-9-yl)-9-fluoro-3,12-dihydroxy-2,4,7,11,13,16-hexaoxa-3λ^5,12λ^5-diphosphatricyclo[13.3.0.0^6,10]octadecane-3,12-dione] is 0.03 µM. To `Nc1ncnc2c1ncn2[C@@H]1CO[C@@H]2COP(=O)(S)O[C@H]3[C@@H](F)[C@H](n4cnc5c(N)ncnc54)O[C@@H]3COP(=O)(S)O[C@@H]12` (stereo partly drawn) [Compound 55, (1S,6R,8R,9R,10R,15R,18R)-8,18-bis(6-amino-9H-purin-9-yl)-9-fluoro-3,12-disulfanyl-2,4,7,11,13,16-hexaoxa-3λ^5,12λ^5-diphosphatricyclo[13.3.0.0^6,10]octadecane-3,12-dione] belongs 0.01 µM.

Take `Nc1ncnc2c1ncn2[C@@H]1CC[C@@H]2COP(=O)(O)O[C@H]3[C@@H](F)[C@H](n4cnc5c(N)ncnc54)O[C@@H]3COP(=O)(O)O[C@H]21` [Compound 34, (1R,6R,8R,9R,10R,15R,18R)-8,18-bis(6-amino-9H-purin-9-yl)-9-fluoro-3,12-dihydroxy-2,4,7,11,13-pentaoxa-3λ^5,12λ^5-diphosphatricyclo[13.3.0.0^6,10]octadecane-3,12-dione]: the response was half-maximal at 0.45 µM (EC50). Molecule `Nc1nc2c(ncn2[C@@H]2CO[C@@H]3COP(=O)(O)O[C@H]4C[C@H](n5cnc6c(N)ncnc65)O[C@@H]4COP(=O)(O)O[C@@H]23)c(=O)[nH]1` [Compound 53, (1S,6R,8R,10S,15R,18R)-18-(2-amino-6-oxo-6,9-dihydro-1H-purin-9-yl)-8-(6-amino-9H-purin-9-yl)-3,12-dihydroxy-2,4,7,11,13,16-hexaoxa-3λ^5,12λ^5-diphosphatricyclo[13.3.0.0^6,10]octadecane-3,12-dione] yielded an EC50 of 0.28 µM. In turn, `Nc1ncnc2c1ncn2[C@@H]1CO[C@@H]2COP(=O)(S)O[C@H]3[C@@H](F)[C@H](n4cnc5c(N)ncnc54)O[C@@H]3COP(=O)(S)O[C@@H]12` (stereo partly drawn) [Compound 54, (1S,6R,8R,9R,10R,15R,18R)-8,18-bis(6-amino-9H-purin-9-yl)-9-fluoro-3,12-disulfanyl-2,4,7,11,13,16-hexaoxa-3λ^5,12λ^5-diphosphatricyclo[13.3.0.0^6,10]octadecane-3,12-dione] came in with an EC50 of 0.01 µM.
